# “Also recorded” adds a separate entry of the source. No end group written: not given here.
# How the values were obtained:
# human PTH-1 receptors [1] = target: T1, human PTH-1 receptors (Homo sapiens, UniProt Q03431); experiment: Intracellular cAMP accumulation (adenylyl cyclase, AC, activation) in HKRK B7 cells; assay type: cell-based; settings: HKRK B7 cells; for AC activation (cAMP accumulation), result in words: compared with hPTH-(1-34) or parent peptide
# T1 construct: expressed in transfected cells
# T1 sequence (Q03431 27-593): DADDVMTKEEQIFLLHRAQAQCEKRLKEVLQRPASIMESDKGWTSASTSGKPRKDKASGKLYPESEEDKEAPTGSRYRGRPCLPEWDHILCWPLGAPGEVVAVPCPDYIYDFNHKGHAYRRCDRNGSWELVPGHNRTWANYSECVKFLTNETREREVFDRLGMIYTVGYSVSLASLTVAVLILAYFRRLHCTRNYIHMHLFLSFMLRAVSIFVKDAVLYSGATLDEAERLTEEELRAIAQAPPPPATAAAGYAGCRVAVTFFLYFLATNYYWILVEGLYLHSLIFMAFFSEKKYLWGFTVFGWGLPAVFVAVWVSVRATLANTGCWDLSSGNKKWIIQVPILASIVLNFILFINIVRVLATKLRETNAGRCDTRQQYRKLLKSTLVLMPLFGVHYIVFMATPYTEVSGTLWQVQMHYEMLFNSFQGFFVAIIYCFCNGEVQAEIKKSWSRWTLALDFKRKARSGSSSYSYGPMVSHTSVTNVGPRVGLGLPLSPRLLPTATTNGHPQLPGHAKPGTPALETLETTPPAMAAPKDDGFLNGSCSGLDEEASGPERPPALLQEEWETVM
# Experimental: HKRK B7 or EW5 cells (32), subclones of LLC-PKI renal epithelial cells that stably express human or rat PTH-1 receptors (950,000 and 320,000 receptors/cell, respectively), were maintained under 5% CO2 in air in Dulbecco's modified essential medium containing 7% fetal bovine serum (FBS) and 1% penicillin/streptomycin (GIBCO-BRL, Grand Island, N.Y.). HEK-293 and COS-7 cells were cultured similarly, except that 10% FBS was used in the medium. Cells were seeded into 24-well plates two days before assay at a density of 2-2.5×10^5 cells/well (HKRK B7 or EW 5 cells) or 6×10^5 cells/well (in 6-well plates) (HEK-293 cells). In experiments involving HEK-293 cells, DNA transfections were performed 24 hr after plating and inositol radiolabel was added 24 hr thereafter (see below). COS-7 cell transfections were performed as previously described (Gardella, T. J., et al., Endocrinology 132(5):2024-2030 (1993)) Intracellular cAMP accumulation, PLC activation and PTHR binding affinity were measured as previously reported (Bringhurst, F. R., et al., Endocrinology 132(5):2090-2098 (1993); Guo, J., et al., Endocrinology 136(9):3884-3891 (1995)). Intracellular cAMP accumulation was measured in extracts of cells that were exposed to human PTH peptides in the presence of isobutylmethyxanthine (IBMX, 1 mM) at 37° C. for 15 min. After terminating the reactions by aspiration and freezing in liquid nitrogen, cell monolayers were extracted with 50 mM HCl and cAMP was measured using a radioimmunoassay kit (Dupont-New England Nuclear, Boston, Mass.).
# human PTH-1 receptors [2] = target: T1, human PTH-1 receptors; experiment: PLC activation (IP3 formation) in HKRK B7 cells; assay type: cell-based; settings: HKRK B7 cells
# Experimental: HKRK B7 or EW5 cells (32), subclones of LLC-PKI renal epithelial cells that stably express human or rat PTH-1 receptors (950,000 and 320,000 receptors/cell, respectively), were maintained under 5% CO2 in air in Dulbecco's modified essential medium containing 7% fetal bovine serum (FBS) and 1% penicillin/streptomycin (GIBCO-BRL, Grand Island, N.Y.). HEK-293 and COS-7 cells were cultured similarly, except that 10% FBS was used in the medium. Cells were seeded into 24-well plates two days before assay at a density of 2-2.5×10^5 cells/well (HKRK B7 or EW 5 cells) or 6×10^5 cells/well (in 6-well plates) (HEK-293 cells). In experiments involving HEK-293 cells, DNA transfections were performed 24 hr after plating and inositol radiolabel was added 24 hr thereafter (see below). COS-7 cell transfections were performed as previously described (Gardella, T. J., et al., Endocrinology 132(5):2024-2030 (1993))
# PLC was activated by PTH agonists in the presence of 30 mM LiCl at 37° C. for 30 min after 16 hr of labeling with [^3H]myo-inositol (3 uCi/ml) in serum-free medium containing 0.1% bovine serum albumin. The reactions were stopped by rapid aspiration and addition of cold 5% TCA. Water-soluble radiolabeled inositol trisphosphate (IP3) was isolated after ether extraction by ion-exchange chromatography (Guo, J., et al., Endocrinology 136(9):3884-3891 (1995)). In experiments involving HEK 293 cells, cells previously transfected with human PTHR cDNA (in the pcDNA1 expression vector HKRK) using Lipofectamine (Gibco BRL) were labeled with [^3H]myo-inositol and assayed as described above, except that total water-soluble [^3H]inositol polyphosphates were collected as a single fraction from the ion-exchange columns.
fold reduction of PLC potency versus hPTH(1-34) (human PTH-1 receptors [2]),EC50 (human PTH-1 receptors [1]) [µM],fold less potent than hPTH-(1-29) in PLC activation (human PTH-1 receptors [2]),EC50 (human PTH-1 receptors [2]; read-out: EC50 for PLC activity) [µM],Substance,"AC activation (cAMP accumulation), result in words (human PTH-1 receptors [1])","PLC activation (IP3 formation), result in words (human PTH-1 receptors [2]; up to 1000 nM or 10 μM)"
approximately 100 fold,,,,"GVSEIQLMHNLGKHLNSMRRVEWLRKKL [[Gly^1,Arg^19]hPTH-(1-28)]",indistinguishable from that of hPTH-(1-34) and equivalent to that by hPTH(1-34) and full,no increase in PLC activity; also recorded: strikingly and selectively impaired
,0.001,approximately 5 fold,6,SVSEIQLMHNLGKHLNSMERVEWLRKKL-NH2 [hPTH-(1-28)],as effectively as did hPTH-(1-34),
